Results: US10682427B2, “Intra-operative imaging” (BRACCO IMAGING S.P.A., priority 2014, dated 2020)

Tested on: rat orthotopic prostate tumor model Mat Ly-Lu
Test: Fluorescence guided-surgery in rat prostate tumor model, visual classification validated by histology
Assay type: in vivo, Copenhagen rats
Protocol: This example is aimed at assessing the sensitivity of the NIR RGD cyclic probe DA364 in the recognition of tumor masses using rat orthotopic prostate tumor model Mat Ly-Lu (a tumor with reduced expression of αvβ3 integrins, as illustrated below).
Intraoperative imaging was performed on a Zeiss system, a modified surgical microscope including appropriate filters for illumination and selection of signals emitted from the probe. Rat tumoral MatLyLu prostate cells were inoculated in the right ventral lobe of the prostate. Three-four days after inoculation animals were intravenously injected with a dose ranging from 5 to 20 nmol/rat of NIR fluorescent probe and imaged 24 hours after. Tumors have been then resected through fluorescent signal guide. Tissues surrounding the fluorescent area including tissues from the left prostate lobe was excised for histological comparison. All the samples were analysed through routine histological processing (Hematoxylin and eosin stain) and additional immune-labelling.
The experiment was performed on 10 Copenhagen rats (males) 11 weeks old, purchased from Harlan Laboratories Srl, S.Pietro al Natisone (UD), Italy. Rat prostate adenocarcinoma was induced in Copenhagen rats by orthotopic injection of the MatLylu tumor cells under isofluorane anesthesia. About 1 hour before tumor implantation, an analgesic (Rymadil) was administered subcutaneously (5 mg/kg) to rats. Then the lower abdomen was shaved and disinfected (Betadinen. A 12 mm incision of the abdominal wall along the linea Alba was performed 3 to 4 cm above the urinary orifice. The prostate was exposed after having pushed away the adipose tissue on each side of the animal.
A cell suspension (30 μL) containing 0.5×10^6 tumor cells was injected with a 27G needle into the right ventral lobe of the prostate. The muscular and cutaneous plan was sewed up with sterile non-resorbable thread (3-0 black silk, Distrex S.p.a.). The wound was painted with disinfectant solution Betadine®. The analgesic was also administered at least once after surgery (about 24 h after). All procedures involving the animals have been conducted according to national and international laws and policies for the Care and Use of Laboratory Animals (EEC Council Directive 86/609CEE; L.D. 116/92 and EEC Council Directive 2010/63/EU; L.D. 26/2014. Authorization n.149/2006-A issued Oct. 27, 2006 by the Italian Ministry of Health).
The tumor removal was performed using a dedicated surgical microscope (Axio Zoom v16, Carl Zeiss Beteiligungs GmbH, Jena, Germany). The microscope was equipped with a PLANAPO Z 0.5×/0.125 FWD 114 MM objective. During surgery an area of about 2.5×2.5 cm^2 was visualized. The surgical field was white-light illuminated by a cold light source (CL 9000 LED CAN (D)) when the fluorescence signal was not required, and by filtered light during the tumor removal (Illuminator: HXP 200C (D), filter set: 32 Cy 5.5 shift free (E)).
The day before surgery, corresponding to 3-4 days after tumor implantation, animals were administered with a dose of DA364 test agent ranging from 5 to 20 nmol/rat. Twenty-four hours after probes injection, animals were anaesthetized with isofluorane gas 0.5% (O2 99.5%), secured on the surgical table in the supine position and prostate tumor will be exposed.
After the removal of the prostatic capsule, the prostatic tumor was exposed to filtered light and fluorescence images were acquired to outline the primary tumor mass and the margins of the pathology (see FIG. 3, Panels A and D). The removal of the tumor mass was then carried out iteratively, by using fluorescence to guide the excision until absence of the fluorescent signal in the area surrounding tumor region (see FIG. 3, Panels B,E and C,F). Most of the fluorescent signal was confined in implantation area, i.e. the prostate right ventral lobe. […]

[1] = 5 to 20 nmol/rat i.v., surgery 24 h after, versus histology

## CC[N+]1=C(/C=C/C=C/C=C2/N(CCCCCC(=O)NC[C@@H]3C[C@@H]4CC[C@H]5C(=O)N[C@@H](CCCNC(=N)N)C(=O)NCC(=O)N[C@@H](CC(=O)O)C(=O)N[C@H]3C(=O)N45)c3ccc4c(S(=O)(=O)O)cc(S(=O)(=O)O)cc4c3C2(C)C)C(C)(C)c2c1ccc1c(S(=O)(=O)[O-])cc(S(=O)(=O)O)cc21 [DA364]
[1]
  sensitivity of visual classification of tumor tissues: 87%
  specificity of visual classification of tumor tissues: 83%
Surgery class FLUORESCENT
  number of tissue samples, histology Negative: 3
  number of tissue samples, histology Positive: 20
Surgery class NON FLUORESCENT
  number of tissue samples, histology Negative: 15
  number of tissue samples, histology Positive: 3
